Several values for one entry are separate records, joined by “and”; a condition that tells them apart may be missing. Equal values may be shown once.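 Five compound concentrations were applied to cells in 96-well plates for 48 hours; endpoints were derived by simple linear interpolation of the resulting dose-response curve. Here, GI50 denotes the concentration required for 50% inhibition of growth. Definition used: TGI = concentration required for complete inhibition of growth.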
Key:
Assay in all cases: NCI-60 cell line screen, 48 h
DMS 273 small cell lung = test system: DMS 273 small cell lung
HL-60(TB) leukemia = test system: HL-60(TB) leukemia
IGROV1 ovarian = test system: IGROV1 ovarian
LXFL 529 NSCLC = test system: LXFL 529 NSCLC
NCI-H522 lung = test system: NCI-H522 lung
SK-MEL-28 melanoma = test system: SK-MEL-28 melanoma
UO-31 renal = test system: UO-31 renal
HS 578T breast = test system: HS 578T breast
NCI/ADR-RES ovarian = test system: NCI/ADR-RES ovarian
T-47D breast = test system: T-47D breast

Row | SMILES | TGI (DMS 273 small cell lung) | TGI (HL-60(TB) leukemia) | TGI (IGROV1 ovarian) | TGI (LXFL 529 NSCLC) | TGI (NCI-H522 lung) | TGI (SK-MEL-28 melanoma) | TGI (UO-31 renal) | GI50 (DMS 273 small cell lung) | GI50 (IGROV1 ovarian) | GI50 (LXFL 529 NSCLC) | GI50 (NCI-H522 lung) | GI50 (SK-MEL-28 melanoma) | GI50 (UO-31 renal) | GI50 (HL-60(TB) leukemia) | GI50 (HS 578T breast) | TGI (HS 578T breast) | GI50 (NCI/ADR-RES ovarian) | TGI (NCI/ADR-RES ovarian) | GI50 (T-47D breast) | TGI (T-47D breast)
1 | Cc1ccc(-c2c(N)nc(NC#N)nc2CCC(=O)Nc2ccccc2[N+](=O)[O-])cc1 | > 100 µM | > 100 µM | > 100 µM | > 100 µM | > 100 µM | > 100 µM | > 100 µM |  |  |  |  |  |  |  |  |  |  |  |  | 
2 | O=C1NC2(CCCC2)C(=O)C12CCCC2 | > 100 µM | > 100 µM | > 100 µM | > 100 µM | > 100 µM | > 100 µM | > 100 µM |  |  |  |  |  |  |  |  |  |  |  |  | 
3 | C=CC1=CSNN1 | > 100 µM | > 100 µM | > 100 µM | > 100 µM | > 100 µM | > 100 µM | > 100 µM |  |  |  |  |  |  |  |  |  |  |  |  | 
4 | C1COCCN1.C1COCCN1.N.N.[Cl-].[Pt+2] | > 100 µM |  | > 100 µM | > 100 µM | > 100 µM | > 100 µM | > 100 µM | > 100 µM | > 100 µM | > 100 µM | > 100 µM | > 100 µM | > 100 µM |  |  |  |  |  |  | 
5 | CCOC(=O)C1=C(C)Nc2ccccc2S1 | > 100 µM |  | > 100 µM | > 100 µM | > 100 µM | > 100 µM | > 100 µM |  |  |  |  |  |  |  |  |  |  |  |  | 
6 | CSC1=NC=CCN1C | > 100 µM | > 100 µM | > 100 µM | > 100 µM | > 100 µM | > 100 µM | > 100 µM |  |  |  |  |  |  |  |  |  |  |  |  | 
7 | CC(=O)OC1=C2CC3(C)OC(=O)CC(C)(C)C3=CC=C2C=C(C(C)C)C1=O (stereo unspecified) | 2.65 µM | 0.888 µM | 2.46 µM | 0.299 µM | 0.41 µM | 1.31 µM | 3.12 µM |  |  |  |  |  |  |  |  |  |  |  |  | 
8 | Cn1cc(NC(=O)c2cc(NC(=O)CCCCCCCCCCC(=O)Nc3cc(C(=O)Nc4cc(C(=O)NCCC(=N)N)n(C)c4)n(C)c3)cn2C)cc1C(=O)NCCC(=N)N | > 100 µM |  | > 100 µM | > 100 µM | > 100 µM |  | > 100 µM |  |  |  |  |  |  |  |  |  |  |  |  | 
9 | CCOc1ccc(S(=O)(=O)/N=C2\C=C(SCC(=O)O)C(=O)c3ccccc32)cc1 |  | 6.99 µM | 4.34 µM |  | 6.63 µM | 16.3 µM | 15.8 µM |  | 2.14 µM |  | 2.53 µM | 4.74 µM | 4.13 µM | 2.35 µM | 2.6 µM | 6.79 µM | 3.26 µM | 13.5 µM | 2.72 µM | 7.18 µM
10 | CC1(C)N=C(N)N=C(N)N1c1ccc(CCCCc2ccc(S(=O)(=O)F)cc2)cc1 |  | 22.1 µM | 23.5 µM |  | 16.2 µM | 20.3 µM | > 100 µM |  | 0.445 µM |  | 2.43 µM | 4.57 µM | 35.1 µM | 0.828 µM | 13.2 µM | 46 µM | > 90.2 µM | > 100 µM | 2.09 µM | 10.3 µM
11 | CC(C)(C)OC(=O)NC(Cc1ccccc1)C(=O)OCN1C(=O)C2C3C=CC(C2C1=O)C1C2C(=O)N(COC(=O)C(Cc4ccccc4)NC(=O)OC(C)(C)C)C(=O)C2C31 (stereo unspecified) |  | > 57.5 µM | 97.4 µM |  | 85 µM | > 100 µM | > 87.9 µM |  |  |  |  |  |  |  |  | 54.3 µM |  | > 100 µM |  | > 100 µM
12 | Brc1cccc(-c2cc(-c3ccc4c(c3)OCCO4)[nH]n2)c1 |  | 17.5 µM | 30.2 µM |  | 34.8 µM | 55.5 µM | 36.6 µM |  | 1.31 µM |  | 0.755 µM | 11.2 µM | 4.24 µM | 0.891 µM | 1.25 µM | 30.6 µM | 0.766 µM | 29.8 µM | 1.34 µM | 50.1 µM
13 | COc1ccc2cc1Oc1ccc(cc1)C[C@H]1c3cc(c(OC)cc3CCN1C)Oc1c(OC)c(OC)cc3c1[C@H](C2)N(C)CC3 | 13.2 µM | 16.1 µM and 23.8 µM and > 100 µM | 19.6 µM and 27.8 µM and > 100 µM |  | 14.9 µM and 12.2 µM and > 100 µM |  |  |  | 14.5 µM |  | 3.27 µM |  |  |  | 13.1 µM | 19.1 µM and 28.2 µM and > 100 µM |  |  |  | 
14 | CCn1c(-c2nonc2N)nc2c(C#CCN)ncc(OCCCN)c21 |  | > 25 µM | > 25 µM |  | > 25 µM | > 25 µM | > 25 µM |  | > 25 µM |  | > 25 µM | > 25 µM | > 25 µM | > 25 µM | > 25 µM | > 25 µM | > 25 µM | > 25 µM | > 25 µM | > 25 µM
15 | NC(CO)Cc1cnc[nH]1 (stereo unspecified) |  | > 100 µM | > 100 µM |  | > 100 µM | > 100 µM | > 100 µM |  | > 100 µM |  |  | > 100 µM | > 100 µM | > 100 µM | > 100 µM | > 100 µM | > 100 µM | > 100 µM | > 100 µM | > 100 µM
16 | CN1CCN(Cc2ccc(C(=O)Nc3cncc(C#Cc4cnc(N)c5ccccc45)c3)cc2C(F)(F)F)CC1 |  | 2.99 µM | 4.43 µM |  | 4.26 µM | 3.22 µM | 2.98 µM |  | 1.87 µM |  | 1.95 µM | 1.75 µM | 1.59 µM | 1.12 µM | 2.98 µM | 14.6 µM | 1.93 µM | 4.22 µM | 11.6 µM | 32.2 µM
17 | Cc1ccccc1C(C#N)C(=O)C(=O)Nc1nc([N+](=O)[O-])cs1 (stereo unspecified) |  | > 100 µM | > 100 µM | > 100 µM | > 100 µM | > 100 µM | > 100 µM |  |  |  |  |  |  |  |  |  |  |  |  | 
18 | N#CC(=C1SCS1)[N+](=O)[O-] |  | 6.36 µM | 71.1 µM |  | 2.08 µM | 15.1 µM | 24.3 µM |  | 3.55 µM |  | 0.687 µM | 3.59 µM | 6.04 µM | 0.618 µM | 3.67 µM | 41.2 µM | 3.05 µM | 20 µM | 0.724 µM | 20.9 µM
19 | CCCCCCCCCCCCCC(=S)NCCCC[C@H](NC(=O)OCc1ccccc1)C(=O)Nc1ccccc1 |  | > 100 µM | > 100 µM |  | 31.2 µM | > 100 µM | > 100 µM |  | 5.87 µM |  | 2.84 µM | 7.99 µM | 2.39 µM | 3.89 µM | 4.31 µM | > 100 µM | 5.11 µM | > 100 µM | 4.52 µM | > 100 µM
20 | C[C@@H]1CC[C@H]2C(COCC3=C(C(F)(F)F)O[C@@H]4O[C@@]5(C)CC[C@H]6[C@H](C)CC[C@@H]3[C@@]46OO5)=C(C(F)(F)F)O[C@@H]3O[C@@]4(C)CC[C@@H]1[C@]32OO4 |  | > 100 µM | > 100 µM |  | 0.073 µM | > 100 µM | > 100 µM |  |  |  | < 0.01 µM |  | < 0.01 µM | < 0.01 µM | 0.152 µM | > 100 µM | 0.543 µM | > 100 µM | < 0.01 µM | > 100 µM
